The text below walks through data of patent US20130289119A1, “FORMULATION COMPRISING ARGININE, USE AND PREPARATION THEREOF” (OSPEDALE SAN RAFFAELE S.R.L., priority 2010, published 2013).

How the values of the data set were obtained: In the present invention, the bio-availability and the vascular and metabolic effect of an oral administration of L-arginine (6.6 g) contained in the formulation of the invention (6 biscuits) compared either to the same food preparation (6 biscuits) prepared without the addition of L-arginine or to 6.6 g of powdered L-arginine were evaluated in healthy subjects.
Seven healthy subjects (2M/5F) participated in the study.
A complete medical history and a physical examination including height, weight, waist and hip circumferences and blood pressure measurements were taken for each subject. It was asked to all subjects to follow a 2000 kcal/die standard diet, according to LARN (Livelli di Assunzione Giornalieri Raccomandati di Nutrienti per la Popolazione Italiana) recommendations and to complete a 3 day food diary (two working days and one holiday day) before every test to obtain accurate information on short-term food intake. Food diaries were elaborated with a dedicated software to decode foods (Nutritionist Pro 2.5, Axial System, Stafford, Tex.), modified introducing the L-arginine contents, obtained from INRAN and USDA database, in more than 700 different foods items.
The portion of 6 biscuits further contained a total amount of 21.9 g of carbohydrates (17.9 g of starch and 4.0 g of sugars), 3.6 g of proteins, 7.5 g of fats and 4.3 g of fibers. A fixed amount of 250 ml of natural water was taken with the food preparation. […] A fixed amount of 250 ml of natural water was taken with the food preparation. • The third test consisted in the oral administration of 6.6 g of powdered L-arginine diluted in 250 ml of natural water. The Study Design is represented in FIG. 2. After an overnight fast, a 20-gauge plastic cannula (Abbocath T; Abbocath, Ireland LTD, Sling, Ireland) was inserted in a large antecubital vein for intermittent sampling. Samples for the evaluation of glucose, insulin, NOx and L-arginine levels were evaluated at 0, 30, 60, 90, 120, 180 and 240 minutes. c-GMP levels were evaluated at 0, 60, 120, 180 and 240 minutes.
Basal blood pressure was taken in supine position after 10 min of rest, and the mean of two measurements was used as the value, after that blood pressure was also taken at time 0, 120, 180 and 240 minutes. Forearm blood flow (FBF) was measured by strain-gauge venous occlusion plethysmography. Before any measurement was taken, the hand circulation was occluded using a wrist cuff inflated to 240 mmHg. Baseline blood flow was calculated as the mean of at least three values. Reactive hyperaemia (endothelium-dependent vasodilation) was measured after the release of a 5-min arterial occlusion, produced by inflating a standard sphygmomanometer cuff on the upper arm to 100 mmHg above systolic blood pressure (SBP). These measurement were performed at basal and every 60 min until the end of the study. Peripheral resistance was calculated as a ratio between mean blood pressure and the FBF.
Glucose levels were measured with spectrophotometric methods adapted to Cobas MIRA using commercial kits (ABX, Montpellier, France). Insulin and proinsulin levels were assayed with ELISA kits (Insulin ELISA, Mercodia, Uppsala, Sweden and Proinsulin ELISA, DRG, Marburg, Germany). NOx levels were evaluated through the measurement of metabolic end products, i.e., nitrite and nitrate, using enzymatic catalysis coupled with Griess reaction. c-GMP levels were measured with radioimmunoassay kits (NEN Life Science Products, Boston, Mass., USA). L-Arginine were extracted from plasma samples by cation-exchange Strata SCX 100-mg columns (Phenomenex) and assayed by high-performance liquid chromatography.

The mark [1] stands for this setting: healthy subjects, oral 6.6 g L-arginine.

As for `N=C(N)NCCC[C@H](N)C(=O)O` [powdered L-Arginine, L-arginine], where the note is “both, human, in vivo, po”, the “Incremental area under the curve for L-Arginine (ΔAUC L-Arginine)” value was determined as 15050 ± 1353 µmol/L. Moreover, where the note is “healthy subjects, forearm plethysmography”, the “Percentage incremental increase of post-ischemic blood flow vs food preparation not containing L-Arginine” value is recorded as “significantly (p<0.02) increased”. Under setting [1], the “cGMP plasma levels vs food preparation not containing L-Arginine” value is reported as “significantly (p<0.03) higher”, the “nitric oxide (NOx) plasma levels vs food preparation not containing L-Arginine” value is given as “significantly (p<0.03) higher”, the “ΔAUC NOx vs food product not containing L-Arginine” value was “significantly (p<0.04) increased” and the “ΔAUC cGMP vs food product not containing L-Arginine” value is “significantly (p<0.04) increased”.
